From US5536645A, “Nutritive medium for the culture of microorganism” (priority 1993, dated 1996) come the findings set out here.

Common to all, as to type: cell-based
One assay concerns enterococci. In words: Effect of medium constituents and peptides on growth of enterococci. To be noted: for base requirements of the enterococci: supplied as precursors; for growth: addition of peptides to the medium. An excerpt:
It is moreover known to affect the activity of the sulfamides and trimethoprim family (Then R. et al., Mecanisme moleculaire de la bactericidie; sulfamides et trimethoprime [Molecular mechanism of bactericidal activity; sulfamides and trimethoprim]. Bactericidie 1990, Editions Maloine, Paris).
The purine and pyrimidine bases can be supplied in several forms, that is to say in the form of precursors, of free bases, of nucleosides or of nucleotides. […] The proportions between purines and pyrimidines were defined in relation to those described for the synthesis of RNA by Neidhart (Neidhart et al. (1990) Physiology of the bacterial cell. A molecular approach. Sinauer associates, inc. U.S.A.), taking account of the absence of thymidine, that is to say purines/pyrimidines in a ratio of between 1.5 and 2.2 and advantageously of 1.8. The final concentrations were then optimized essentially to satisfy the growth of the staphylococci and of the enterococci.

The subject of assay [1] is Proteus, Morganella, Providencia and Serratia. Nature of the assay: Effect of polyamines on growth. The conditions noted are these: preferential concentration 0.75 mg/l. The protocol: The polyamines are present in the eukaryotic and prokaryotic cells and participate in numerous biological reactions including the synthesis of nucleic acids and of proteins (see Tabor C. W. and Tabor H. (1985) Polyamines in Microorganisms, Microbiol. Rev. 49: 81-99). Putrescine, spermine and spermidine were tested. […] FIG. 7 illustrates the effect of spermidine on the growth of Proteus mirabilis.

The subject of the next assay is S. marcescens. In words: Equivalent MIC of antibiotics in VITEK cards, gram-negative bacteria (Table 3). The conditions noted are these: for MIC: Serratia marcescens, 12 h. Here is the method:
(§1) With the determination of the sensitivity to antibiotics in mind, a suspension of 0.5 MF (Mac Farland) in physiological water was prepared from bacterial colonies selected in Petri dishes, reading being carried out on an ATB 1550 densitometer marketed by BIOMERIEUX (ATB trade mark). The suspension obtained was respectively diluted to 1/100th in the medium of the invention and Mueller-Hinton medium. VITEK cards (VITEK trade mark) containing different antibiotics at 10 concentrations were filled in vacuo into a VITEK apparatus marketed by BIOMERIEUX-VITEK. The cards were incubated for 12 hours in a VITEK incubator/reader marketed by BIOMERIEUX-VITEK. The growth kinetics were visualized and interpreted and an equivalent MIC was determined (equivalent MIC: equivalent minimum inhibitory concentration, that is to say the smallest concentration for which no bacterial growth is detected by the apparatus).
(§2) IST refers to the medium of the invention and MH signifies Mueller-Hinton medium.
(§3) S, I and R respectively signify "sensitive", "intermediate" and "resistant" with reference to the critical concentrations defined by the NCCLS (National Committee for Clinical Laboratory Standards).

For a further assay, the system named is P. aeruginosa. Described as above. To be noted: for MIC: Pseudomonas aeruginosa. Here is the method:
as §1, §2, §3

The next assay concerns E. coli. In words: microbe, parasite or virus in culture. To be noted: for MIC: Escherichia coli, 12 h, read-out: Equivalent MIC. Here is the method:
as §1, §2, §3

The test system of assay [2] is enterococci and streptococci of group B. In words: Effect of lipoic acid on growth (FIG. 6). The conditions noted are these: 0.01 mg/l in FIG. 6. An excerpt: FIG. 6 illustrates the effect of lipoic acid on the growth of Enterococcus faecalis.
Another assay has as its system Serratia marcescens. Nature of the assay: Effect of serine concentration on growth (FIG. 1). To be noted: serine concentration increased by a factor of 10 in IST medium.
The next assay concerns S. epidermidis. In words: microbe, parasite or virus in culture. The conditions noted are these: for MIC: Staphylococcus epidermidis, 12 h, read-out: Equivalent MIC. The protocol: as §1, §2
(§4) *A range of concentration, of ratio 2, was tested for each antibiotic in
(§5) each of the abovementioned concentration margins.
as §3

Another assay relates to S. aureus. In words: microbe, parasite or virus in culture. To be noted: for MIC: Staphylococcus aureus, read-out: Equivalent MIC. The protocol:
as §1, §2, §4, §5, §3

A further assay has as its system E. faecalis. In words: Equivalent MIC of antibiotics in VITEK cards, gram-positive bacteria (Table 4). To be noted: for MIC: Enterococcus faecalis, 12 h. Here is the method:
as §1, §2, §4, §5, §3

Read-outs that look alike come from different tables or passages of the source. Ends that are not written are not given here.

Excerpt for Serratia marcescens: Curve b represents the growth with the IST medium for a concentration of serine increased by a factor of 10. Curve c represents the growth obtained with the Mueller-Hinton medium.
The qualitative and quantitative composition of amino acids was then optimized for the different species in order to obtain growth in conformity with that obtained with the reference Mueller-Hinton medium. […] The final concentrations of amino acids were defined, after having verified their importance on the final biomass, taking account of the biomass obtained in Mueller-Hinton medium.

On to `Nc1nc2ncc(CNc3ccc(C(=O)N[C@@H](CCC(=O)O)C(=O)O)cc3)nc2c(=O)[nH]1` [Folic acid, folic acid], for which, in the assay with enterococci (E. faecalis, E. faecium and E. hirae, 0.005 mg/l in FIG. 5), the “importance for the growth of enterococci” value is reported as “importance for the growth of enterococci”.
Turning to `NCCCCNCCCN` [Spermidine, spermidine], the growth entry in [1] is “chosen according to the results, especially for the growth of Proteus, Morganella, Providencia and Serratia”.
In the case of `CC(C)(O/N=C(\C(=O)N[C@@H]1C(=O)N2C(C(=O)[O-])=C(C[n+]3ccccc3)CS[C@H]12)c1csc(N)n1)C(=O)O` [ceftazidim], the “NCCLS Category” value in the assay with S. marcescens (CDC 2102, IST medium) is given as “S”; in the assay on S. marcescens (CDC 2102, MH medium), “S”; in the assay on S. marcescens (CDC 2162, IST medium) it was “S”; in the assay with S. marcescens (CDC 2162, MH medium) it was “S”; in the assay with S. marcescens (CDC 2240, IST medium) it was “S”; in the assay with S. marcescens (CDC 2240, MH medium), “S”. For the same compound, the “NCCLS Category” value in the assay with P. aeruginosa (AP 9, IST medium) is “R”; in the assay on P. aeruginosa (AP 9, MH medium), “R”; with P. aeruginosa (AP 13, IST medium), “S”; with P. aeruginosa (AP 13, MH medium) it was “S”; in the assay on P. aeruginosa (ATCC 27853, IST medium) it was “S”; in the assay on P. aeruginosa (ATCC 27853, MH medium) it was “S”. For the same compound, the “NCCLS Category” value is reported as “S” with P. aeruginosa (CDC 2275, IST medium); “S” with P. aeruginosa (CDC 2275, MH medium); “S” in the assay with E. coli (CDC 2008, IST medium); “S” in the assay with E. coli (CDC 2008, MH medium); “S” with E. coli (CDC 2254, IST medium); “S” with E. coli (CDC 2254, MH medium). The MIC in the assay with S. marcescens (read-out: Equivalent MIC, CDC 2102, IST medium) is 0.5 µg/mL; in the assay with S. marcescens (read-out: Equivalent MIC, CDC 2102, MH medium), 0.25 µg/mL; in the assay with S. marcescens (read-out: Equivalent MIC, CDC 2162, IST medium) it was 2 µg/mL; with S. marcescens (read-out: Equivalent MIC, CDC 2162, MH medium), 2 µg/mL; in the assay on S. marcescens (read-out: Equivalent MIC, CDC 2240, IST medium), 0.5 to 1 µg/mL; with S. marcescens (read-out: Equivalent MIC, CDC 2240, MH medium), 1 µg/mL. Also, the MIC stood at 32 µg/mL in the assay with P. aeruginosa (12 h, read-out: Equivalent MIC, AP 9, IST medium); 32 µg/mL with P. aeruginosa (12 h, read-out: Equivalent MIC, AP 9, MH medium); 4 µg/mL in the assay on P. aeruginosa (12 h, read-out: Equivalent MIC, AP 13, IST medium); 4 µg/mL in the assay with P. aeruginosa (12 h, read-out: Equivalent MIC, AP 13, MH medium); 4 µg/mL with P. aeruginosa (12 h, read-out: Equivalent MIC, CDC 2275, IST medium); 4 µg/mL in the assay on P. aeruginosa (12 h, read-out: Equivalent MIC, CDC 2275, MH medium). Moreover, the MIC in the assay on P. aeruginosa (ATCC27853, 12 h, read-out: Equivalent MIC, ATCC 27853, IST medium) is 1 µg/mL; in the assay on P. aeruginosa (ATCC27853, 12 h, read-out: Equivalent MIC, ATCC 27853, MH medium) it was 2 µg/mL; in the assay on E. coli (CDC 2008, IST medium) it was under 0.06 µg/mL; in the assay with E. coli (CDC 2008, MH medium), under 0.06 µg/mL; with E. coli (CDC 2254, IST medium), 0.5 µg/mL; in the assay on E. coli (CDC 2254, MH medium) it was 1 µg/mL.
Consider `O=c1[nH]cnc2nc[nH]c12` [hypoxanthine], for which the “base requirements of the enterococci” value in the assay on enterococci is “does not satisfy the base requirements of the enterococci”.
Take `O=C(O)CCCCC1CCSS1` (centres unmarked) [lipoic acid]: in assay [2], the growth entry is “allowing the growth of the enterococci and of the streptococci of group B to be increased to a maximum”.
Turning to `N[C@@H](CO)C(=O)O` [serine], the bacterial growth entry with Serratia marcescens was “near to that obtained with Mueller-Hinton medium”.
As to `O=c1cc[nH]c(=O)[nH]1` [uracil], in the assay on enterococci, the “base requirements of the enterococci” value is listed as “does not satisfy the base requirements of the enterococci”.
Regarding `CN[C@H](CC(C)C)C(=O)N[C@H]1C(=O)N[C@@H](CC(N)=O)C(=O)N[C@H]2C(=O)N[C@H]3C(=O)N[C@H](C(=O)N[C@H](C(=O)O)c4cc(O)cc(O)c4-c4cc3ccc4O)[C@H](O)c3ccc(c(Cl)c3)Oc3cc2cc(c3O[C@@H]2O[C@H](CO)[C@@H](O)[C@H](O)[C@H]2O[C@H]2C[C@](C)(N)[C@H](O)[C@H](C)O2)Oc2ccc(cc2Cl)[C@H]1O` [vancomycin], the “NCCLS Category” value in the assay with S. epidermidis (CDC 2024, IST medium) is “S”; in the assay with S. epidermidis (CDC 2024, MH medium), “S”; in the assay on S. epidermidis (CDC 2105, IST medium) it was “S”; with S. epidermidis (CDC 2105, MH medium), “S”; in the assay with S. epidermidis (CDC 2234, IST medium) it was “S”; with S. epidermidis (CDC 2234, MH medium) it was “S”. Moreover, the “NCCLS Category” value is given as “S” with S. aureus (ATCC 29213, IST medium); “S” in the assay with S. aureus (ATCC 29213, MH medium); “S” in the assay with S. aureus (CDC 2194, IST medium); “S” in the assay with S. aureus (CDC 2194, MH medium); “S” with S. aureus (CDC 2215, IST medium); “S” with S. aureus (CDC 2215, MH medium). Further, the “NCCLS Category” value is “I” in the assay on E. faecalis (CDC 2017, IST medium); “I” in the assay with E. faecalis (CDC 2017, MH medium); “S” with E. faecalis (CDC 2225, IST medium); “S” with E. faecalis (CDC 2225, MH medium); “S” in the assay on E. faecalis (CDC 2230, IST medium); “S” in the assay on E. faecalis (CDC 2230, MH medium). Further, the MIC came to 4 µg/mL in the assay with S. epidermidis (CDC 2024, IST medium); 4 µg/mL in the assay on S. epidermidis (CDC 2024, MH medium); 4 µg/mL in the assay with S. epidermidis (CDC 2105, IST medium); 2 µg/mL with S. epidermidis (CDC 2105, MH medium); 2 µg/mL in the assay with S. epidermidis (CDC 2234, IST medium); 2 µg/mL in the assay on S. epidermidis (CDC 2234, MH medium). In addition, the MIC is 2 µg/mL in the assay on S. aureus (12 h, CDC 2194, IST medium); 1 µg/mL in the assay with S. aureus (12 h, CDC 2194, MH medium); 2 µg/mL in the assay on S. aureus (12 h, CDC 2215, IST medium); 1 µg/mL in the assay on S. aureus (12 h, CDC 2215, MH medium); 2 µg/mL in the assay on S. aureus (ATCC29213, 12 h, ATCC 29213, IST medium); 2 µg/mL in the assay with S. aureus (ATCC29213, 12 h, ATCC 29213, MH medium). For the same compound, the MIC in the assay with E. faecalis (CDC 2017, IST medium) is 8 µg/mL; in the assay on E. faecalis (CDC 2017, MH medium), 16 µg/mL; with E. faecalis (CDC 2225, IST medium) it was 4 µg/mL; in the assay on E. faecalis (CDC 2225, MH medium) it was 4 µg/mL; with E. faecalis (CDC 2230, IST medium) it was 1 µg/mL; in the assay with E. faecalis (CDC 2230, MH medium), 1 to 2 µg/mL.
With ASDAKAYDTEV, in the assay with enterococci, the growth result is on record as “interesting results for other strains of Enterococci”.
For EDRPPLFGQGTV, in the assay with enterococci, the growth result is recorded as “interesting results for other strains of Enterococci”.
